The target in one series is T1, 5-HT2A receptors (Rattus norvegicus, UniProt P14842).
T1 construct: Frontal rat cortex is homogenized in ice-cold buffer; from tissue; host or cells: rat frontal cortex homogenate (membrane pellet)
As to the kind of experiment: [3H]ketanserine displacement at 5-HT2A receptors (Example A1). It counts as binding. As to conditions: frontal rat cortex homogenate, 15 minutes at 37° C. As to the method:
For the in-vitro detection of affinity to 5-HT2A receptors, the following test (Example A1), for example, can be used. The 5-HT2A receptors are exposed both to [^3H]ketanserine (a substance which is known for its affinity to the receptor) and also to the test compound. The decrease in the affinity of [^3H]ketanserine to the receptor is an indication of the affinity of the test substance to the 5-HT2A receptor. The detection is carried out analogously to the description by J. E. Leysen et al., Molecular Pharmacology, 1982, 21: 301-314, or as also described, for example, in EP 0320983.
Preparation of a Suspension of 5-HT2A Receptors:
Frontal rat cortex is homogenized in ice-cold buffer. The homogenate is centrifuged for 10 minutes at 4° C. and 50,000 X. The pellet is re-suspended in 2.5 ml of ice-cold tris buffer, made up to 10 ml with additional buffer and centrifuged as described. The pellet is then re-suspended in buffer and diluted to give a homogenate comprising 60 mg of material/ml. 0.1 ml of the suspension, 100 μl of a 5 nM solution of [^3H]ketanserine and 100 μl of a solution of the test compound (concentration in the range from 10^−5 to 10^−10 mol per litre) are introduced into the incubation tubes and made up to 1 ml with buffer. The tubes are incubated for 15 minutes at 37° C. After the incubation has been terminated by dipping the tubes into an ice bath, the cooled suspension is filtered through a glass filter under reduced pressure. The filters are washed 3× with 5 ml of cold buffer and then transferred into scintillation tubes. The filters are analysed by liquid scintillation spectrometry in 8 ml of Triton-X scintillator liquid.

Where a name gives a salt, the structure may show the parent alone.

T1 sequence (P14842 whole entry): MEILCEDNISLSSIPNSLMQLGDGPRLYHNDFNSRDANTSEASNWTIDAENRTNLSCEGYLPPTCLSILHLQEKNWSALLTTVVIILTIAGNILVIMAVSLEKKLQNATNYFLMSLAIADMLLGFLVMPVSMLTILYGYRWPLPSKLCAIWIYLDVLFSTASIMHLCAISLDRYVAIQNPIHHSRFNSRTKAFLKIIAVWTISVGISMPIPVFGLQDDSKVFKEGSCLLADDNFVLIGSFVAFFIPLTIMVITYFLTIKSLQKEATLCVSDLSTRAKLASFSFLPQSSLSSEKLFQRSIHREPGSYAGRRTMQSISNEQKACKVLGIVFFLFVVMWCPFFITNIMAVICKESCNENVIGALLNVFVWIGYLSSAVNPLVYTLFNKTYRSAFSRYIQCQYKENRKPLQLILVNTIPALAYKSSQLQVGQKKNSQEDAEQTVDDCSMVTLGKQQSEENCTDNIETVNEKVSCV

Broadly, the melting point is the temperature of the solid-liquid transition. The molecule `Fc1ccc(CCN2CCC(Sc3cccc(Cl)n3)CC2)cc1` (as salt: hydrochloride) [Example 2, 2-chloro-6-{1-[2-(4-fluorophenyl)ethyl]piperidin-4-ylsulfanyl}pyridine] registered a melting point of 237 to 240 °C.
`[O-][S+](c1cccc(Cl)n1)C1CCN(CCc2ccc(F)cc2)CC1` (stereo not shown) (as salt: hydrochloride) [Example 3, 2-chloro-6-{1-[2-(4-fluorophenyl)ethyl]piperidine-4-sulfinyl}pyridine] came in with a melting point of 208 °C.
On the same count and under the same terms, for `O=S(=O)(c1cccc2cccnc12)N1CCN(CCc2ccc(F)cc2)CC1` (as salt: hydrochloride) [compound 1, 4-(8-Quinolinesulfonyl)-1-[2-(4-fluorophenyl)ethyl]piperazine] the value was 141 °C.
The term IC50 denotes the concentration needed to halve the response being measured. Low values mean greater potency in that assay, high ones weaker potency in that assay. With `O=S(=O)(c1cccc2cccnc12)N1CCN(CCc2ccc(F)cc2)CC1` [compound 1, 4-(8-Quinolinesulfonyl)-1-[2-(4-fluorophenyl)ethyl]piperazine], the 50% inhibitory concentration (IC50) at 5-HT2A receptors was found to be 1.3 nM.
Still for that read-out and setting: for `O=S(=O)(c1cccc2ccccc12)N1CCN(CCc2ccc(F)cc2)CC1` [compound 2, 4-(1-Naphthylsulfonyl)-1-[2-(4-fluorophenyl)ethyl]piperazine] the value was 8.1 nM; for `O=S(=O)(c1ccc(F)cc1)N1CCN(CCc2ccc(F)cc2)CC1` [compound 3, 4-(4-Fluorophenylsulfonyl)-1-[2-(4-fluorophenyl)ethyl]piperazine], 25 nM.
In turn, `CC(=O)Nc1cccc2c(S(=O)(=O)N3CCN(CCc4ccc(F)cc4)CC3)cccc12` [compound 4, 4-(5-Acetamidonaphth-1-yl-sulfonyl)-1-[2-(4-fluorophenyl)ethyl]piperazine] returned an IC50 on 5-HT2A receptors of 7.4 nM.
`O=S(=O)(c1cccc2nonc12)N1CCN(CCc2ccc(F)cc2)CC1` [compound 5, 4-(2,1,3-Benzoxadiazol-4-ylsulfonyl)-1-[2-(4-fluorophenyl)ethyl]piperazine] had an IC50 at 5-HT2A receptors of 44 nM.
On the same count and under the same terms, for `O=[N+]([O-])c1ccccc1S(=O)(=O)N1CCN(CCc2ccc(F)cc2)CC1` [compound 6, 4-(2-Nitrophenylsulfonyl)-1-[2-(4-fluorophenyl)ethyl]piperazine] the value was 9.2 nM; for `O=S(=O)(c1ccc2c(c1)CCN2)N1CCN(CCc2ccc(F)cc2)CC1` [compound 7, 4-(2,3-Dihydro-1H-indole-5-sulfonyl)-1-[2-(4-fluorophenyl)ethyl]piperazine], 13 nM; for `N#Cc1c[nH]c2ccc(S(=O)(=O)N3CCN(CCc4ccc(F)cc4)CC3)cc12` [compound 8, 4-(3-Cyano-1H-indole-5-sulfonyl)-1-[2-(4-fluorophenyl)ethyl]piperazine], 1.6 nM.
Consider `O=S(=O)(c1ccc(F)cc1)C1CCN(CCc2ccc(F)cc2)CC1` [compound 9, 4-(4-Fluorophenylsulfonyl)-1-(2-(4-fluorophenyl)ethyl]piperidine], for which, at 5-HT2A receptors, the half-maximal inhibitory concentration (IC50) turned out to be 2.1 nM.
`O=S(=O)(c1cccc(Cl)n1)C1CCN(CCc2ccc(F)cc2)CC1` [compound 10, 2-Chloro-6-{1-[2-(4-fluorophenyl)ethyl]piperidin-4-sulfonyl}pyridine] yielded a 50% inhibitory concentration (IC50) at 5-HT2A receptors of 0.6 nM.

The values above are taken from patent US20030130287A1, “Piperidine and piperazine derivatives which function as 5-ht2a receptor antagonists” (priority 2000, published 2003).
